The values that follow come from article PMC8914261, “Discovery and Characterization of the Naturally Occurring Inhibitors Against Human Pancreatic Lipase in Ampelopsis grossedentata” (Frontiers in Nutrition, 2022).

The conditions of data set [1]: oral administration; ref [60], [61]; cited from earlier work.
The target in data set [2] is T1, human pancreatic lipase (hPL) (Homo sapiens, UniProt P16233).
T1 construct: made in house
T1 sequence (P16233 17-465): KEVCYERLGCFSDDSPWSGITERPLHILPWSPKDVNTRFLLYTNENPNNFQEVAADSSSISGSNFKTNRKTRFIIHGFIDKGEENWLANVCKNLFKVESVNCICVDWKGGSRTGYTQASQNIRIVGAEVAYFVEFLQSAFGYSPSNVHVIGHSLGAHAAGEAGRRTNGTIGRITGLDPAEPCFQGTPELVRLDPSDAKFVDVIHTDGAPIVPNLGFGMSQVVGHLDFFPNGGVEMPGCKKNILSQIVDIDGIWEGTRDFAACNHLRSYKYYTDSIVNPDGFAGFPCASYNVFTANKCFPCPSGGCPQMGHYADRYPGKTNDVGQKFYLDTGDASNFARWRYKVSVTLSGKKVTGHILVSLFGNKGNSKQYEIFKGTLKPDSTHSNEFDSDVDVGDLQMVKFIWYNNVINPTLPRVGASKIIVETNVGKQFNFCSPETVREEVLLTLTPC
As to the kind of experiment: hPL inhibition assay (hPL-catalyzed DDAO-ol hydrolysis, fluorescence). Type of data set: biochemical. The settings on record: for IC50: hPL, DDAO-ol 20 μM as substrate, 3 min pre-incubation at 37°C; for hPL inhibition activity (qualitative): tested at 1, 10 and 100 μM; for remaining activity at 10 µM: inhibitor at 10 μM, read-out: residual activities of hPL; for hPL inhibition at high dose: inhibitor at 100 μM.

Data set [3] can be described thus: Estimated local exposure in the gastrointestinal tract (daily dose divided by volume of the human gastrointestinal system). To be noted: oral AGE at daily dosage recommended by Chinese Materia Medica. The text has this: A. grossedentata is known as the “king of flavonoids”, while the content of total flavonoids in AGE is up to 45% ([57]). Herein, a total of nine flavonoids in AGE were identified and characterized by LC–MS/MS-based chemical profiling.

Data set [4] has as its target T1, human pancreatic lipase (hPL). As to the kind of experiment: Inhibition kinetic analyses against hPL-catalyzed DDAO-ol hydrolysis (Lineweaver-Burk). Format: biochemical.
For data set [5] the target is unchanged. Put plainly: Time-dependent inhibition assay of hPL (different pre-incubation times). To be noted: long pre-incubation time vs. standard. Format: biochemical. How it is done:
After pre-incubating at 37°C for 3 min, the substrate of DDAO-ol (20 μM, final concentration) was added to the initial reaction. […] The standard curve was plotted using DDAO as product standard (Supplementary Figure S6). The control incubations without inhibitors were also performed.

Bounds are passed on as bounds.

Consider `O=C1c2c(O)cc(O)cc2O[C@H](c2cc(O)c(O)c(O)c2)[C@H]1O` [Dihydromyricetin], for which, in data set [1], the “local exposure in stomach and small intestine vs. other deep organs (heart, liver, spleen, lung, kidney, brain)” value was “much higher”; the oral bioavailability result was “very poor”. Further, the midpoint of inhibition in data set [2], the IC50, lay at 34.3 ± 4.63 µM. Also, the “local exposure in the gastrointestinal tract” value in data set [3] is 206.08 µM.

As for `O=C1c2c(O)cc(O)cc2O[C@H](c2cc(O)c(O)c(O)c2)[C@@H]1O` [Iso-dihydromyricetin], in data set [2], the IC50 amounted to 14.4 ± 1.21 µM and the “hPL inhibition activity (qualitative)” value is on record as “moderate”. Further, in data set [3], the “local exposure in the gastrointestinal tract” value was 106.90 µM.

As for `O=c1c(O)c(-c2cc(O)c(O)c(O)c2)oc2cc(O)cc(O)c12` [Myricetin], the Ki in data set [4] (apparent Ki) is 2.04 ± 0.75 µM. Besides, in data set [5], the “time dependence of hPL inhibition” value is reported as “not time-dependent”. In data set [2], half-maximal inhibition (IC50) required 1.34 ± 0.18 µM and the remaining activity at 10 µM is less than 15%. In addition, the “local exposure in the gastrointestinal tract” value in data set [3] was 19.37 µM.

On to `O=c1c(O)c(-c2ccc(O)c(O)c2)oc2cc(O)cc(O)c12` [Quercetin], for which the Inhibition mode entry in data set [4] (Lineweaver-Burk plots) was “Non-competitive”. Also, in data set [5], the “time dependence of hPL inhibition” value is listed as “not time-dependent”. The remaining activity at 10 µM in data set [2] is less than 15%.

Turning to `O=c1c(O[C@@H]2OC[C@@H](O)[C@H](O)[C@H]2O)c(-c2ccc(O)c(O)c2)oc2cc(O)cc(O)c12` [Reynoutirn, Reynoutrin], in data set [2], the IC50 is more than 100 µM and the “hPL inhibition at high dose” value is “did not inhibit”.

For `O=C1c2c(O)cc(O)cc2OC(c2ccc(O)c(O)c2)C1O` (stereo not shown) [Taxifolin], in data set [2], the IC50 came to 27.8 ± 2.92 µM and the “hPL inhibition activity (qualitative)” value is “moderate”. Besides, the “local exposure in the gastrointestinal tract” value in data set [3] was 11.85 µM.

As for Myricitrin, the “hPL inhibition at high dose” value in data set [2] is on record as “did not inhibit”.

On to “Sanggenone C [SanggenoneC, reference compound]”, for which the concentration for half-maximal inhibition (IC50) in data set [2] worked out at 3.46 ± 0.07 µM.
